Experimental data taken from BigSolDB 2.1.

O=C(O)c1cccnc1
solubility (mole fraction)
Conditions	in DMSO	in acetone	in ethanol	in ethyl acetate	in isopropanol	in methanol	in n-butanol	in n-propanol	in water
283.15 K	0.0437	0.00062	0.00202	0.00033	0.00177	0.00238	0.0014	0.00179	0.00165
293.15 K	0.0576	0.00104	0.00312	0.00054	0.00276	0.00382	0.00231	0.00285	0.00215
303.15 K	0.0722	0.00166	0.00468	0.00093	0.00418	0.00587	0.00351	0.00435	0.00279
313.15 K	0.0889	0.00262	0.00683	0.00149	0.00617	0.00889	0.00554	0.00641	0.00363
323.15 K	0.107	0.00408	0.00978	0.00246	0.00891	0.0129	0.00855	0.00923	0.00458
333.15 K	0.127	–	0.0136	0.00401	0.0125	–	0.0123	0.0131	0.00576
343.15 K	0.15	–	0.0188	0.00603	0.0172	–	0.0178	0.0186	0.00704
353.15 K	–	–	–	–	–	–	0.0253	–	0.00872
363.15 K	–	–	–	–	–	–	–	–	0.0107
